Results as given in patent publication US6706740B2, “Fungicidal heterocyclic aromatic amides and their compositions, methods of use and preparation” (Dow AgroSciences LLC, priority 1999, dated 2004).
Like-named read-outs stand apart in the source and are kept apart here.

What was measured:
Ustilago maydis (USTIMA) = test: microbe, parasite or virus in culture; type: cell-based; conditions: for inhibition at 25 ppm: Mycosarcoma maydis, read-out: USTIMA in vitro Growth Inhibition
[1] = system: Magnaporthe grisea (Pyricularia oryzae—PYRIOR); test: microbe, parasite or virus in culture; type: cell-based; conditions: for inhibition at 25 ppm: Pyricularia oryzae, read-out: PYRIOR in vitro Growth Inhibition
Septoria tritici—SEPTTR = test: Leaf Blotch of Wheat, in vivo whole plant, 24 Hour Protectant; conditions: control of fungal infection vs untreated plants; for pest or weed control at 100 ppm: Zymoseptoria tritici, 24 h, read-out: SEPTTR in vivo 1 Day Protectant
Erysiphe graminis—ERYSGT = test: Powdery Mildew of Wheat, in vivo whole plant, 24 Hour Protectant; conditions: control of fungal infection vs untreated plants; for pest or weed control at 100 ppm: Erysiphe, read-out: ERYSGT in vivo 1 Day Protectant
[2] = system: Puccinia recondita—PUCCRT; test: Brown Rust of Wheat, in vivo whole plant, 24 Hour Protectant; conditions: control of fungal infection vs untreated plants; for pest or weed control at 100 ppm: Puccinia, read-out: PUCCRT in vivo 1 Day Protectant
[3] = system: Rhizoctonia solani (RHIZSO); test: microbe, parasite or virus in culture; type: cell-based; conditions: for inhibition at 25 ppm: Rhizoctonia solani, read-out: RHIZSO in vitro Growth Inhibition
[4] = system: Leptosphaeria nodorum—LEPTNO; test: Glume Blotch of Wheat, in vivo whole plant, 24 Hour Protectant; conditions: control of fungal infection vs untreated plants; for pest or weed control at 100 ppm: Leptosphaeria, read-out: LEPTNO in vivo 1 Day Protectant
[5] = system: Phytophthora infestans (PHYTIN); test: microbe, parasite or virus in culture; type: cell-based; conditions: for inhibition at 25 ppm: Phytophthora infestans, read-out: PHYTIN in vitro Growth Inhibition
[6] = system: Phytophthora infestans—PHYTIN; test: whole plant or invertebrate; type: in vivo; conditions: for pest or weed control at 100 ppm: Phytophthora, in Solanum lycopersicum, 24 h, read-out: PHYTIN in vivo 1 Day Protectant
[7] = system: Stagonospora nodorum (Leptosphaeria nodorum—LEPTNO); test: In vitro fungal growth inhibition, Stagonospora nodorum (LEPTNO); type: cell-based; conditions: for inhibition at 25 ppm: Leptosphaeria, read-out: LEPTNO in vitro Growth Inhibition
[8] = system: Mycosphaerella graminicola (Septoria tritici—SEPTTR); test: In vitro fungal growth inhibition, Mycosphaerella graminicola (SEPTTR); type: cell-based; conditions: for inhibition at 25 ppm: Zymoseptoria tritici, read-out: SEPTTR in vitro Growth Inhibition
[9] = 100 ppm spray, wheat, 24 hour protectant
[10] = wheat plants sprayed at 100 ppm, inoculated after 24 hours
[11] = 100 ppm spray, 24 hour protectant, wheat

| Structure (SMILES) | inhibition at 25 ppm (Ustilago maydis (USTIMA)) | inhibition at 25 ppm [1] | pest or weed control at 100 ppm (Septoria tritici—SEPTTR; [9]) | pest or weed control at 100 ppm (Erysiphe graminis—ERYSGT; [9]) | inhibition at 25 ppm [3] | pest or weed control at 100 ppm [4, 9] | inhibition at 25 ppm [5] | pest or weed control at 100 ppm [6] | inhibition at 25 ppm ([7]; 25 ppm in growth medium) | inhibition at 25 ppm ([8]; 25 ppm in growth medium) | pest or weed control at 100 ppm (Erysiphe graminis—ERYSGT; [10]) | inhibition at 25 ppm ([7]; 25 ppm in the growth medium) | inhibition at 25 ppm ([8]; 25 ppm in the growth medium) | other results |
| --- | --- | --- | --- | --- | --- | --- | --- | --- | --- | --- | --- | --- | --- | --- |
| COc1ccnc(C(=O)Nc2ccccc2Oc2ccc(C)cc2)c1O [Compound 411] | < 80% | < 80% | < 25% | < 25% | < 80% | < 25% | < 80% | < 25% | > 80% | > 80% | – | – | – | pest or weed control at 100 ppm [2, 9]: < 25% |
| CCCCCc1ccc(C(C)NC(=O)c2nc(Br)ccc2O)cc1 (stereo not shown) [Compound 489] | < 80% | < 80% | – | – | < 80% | – | < 80% | < 25% | – | – | < 25% | < 80% | < 80% | pest or weed control at 100 ppm (Septoria tritici—SEPTTR; [10]): < 25%; pest or weed control at 100 ppm [2, 10]: 25 to 74%; pest or weed control at 100 ppm [4, 10]: < 25% |
| O=C(Nc1cccc(Oc2ccc(C(F)(F)F)cc2)c1)c1nc(Br)ccc1O [Compound 496] | < 80% | < 80% | – | – | < 80% | – | < 80% | < 25% | – | – | < 25% | < 80% | < 80% | pest or weed control at 100 ppm (Septoria tritici—SEPTTR; [10]): 25 to 74%; pest or weed control at 100 ppm [2, 10]: 25 to 74%; pest or weed control at 100 ppm [4, 10]: < 25% |
| COc1ccnc(C(=O)NCC#CCCl)c1O [Compound 239] | < 80% | < 80% | – | – | < 80% | – | < 80% | < 25% | < 80% | < 80% | – | – | – | pest or weed control at 100 ppm (Septoria tritici—SEPTTR; [11]): 25 to 74%; pest or weed control at 100 ppm (Erysiphe graminis—ERYSGT; [11]): < 25%; pest or weed control at 100 ppm [2, 11]: 25 to 74%; pest or weed control at 100 ppm [4, 11]: 25 to 74% |
| COc1ccnc(C(=O)NC(COC(=O)CC(C)OC(=O)CCc2ccccc2)C(=O)OC(C)C)c1O (stereo not shown) [Compound 353] | < 80% | < 80% | < 25% | < 25% | < 80% | < 25% | < 80% | < 25% | < 80% | < 80% | – | – | – | PUCCRT in vivo 1 Day Protectant [2, 9]: + + |
| CC(NC(=O)c1nc(Br)ccc1O)c1ccc(C(F)(F)F)cc1 (stereo not shown) [Compound 488] | < 80% | > 80% | – | – | < 80% | – | < 80% | < 25% | – | – | < 25% | < 80% | < 80% | pest or weed control at 100 ppm (Septoria tritici—SEPTTR; [10]): 25 to 74%; pest or weed control at 100 ppm [2, 10]: 25 to 74%; pest or weed control at 100 ppm [4, 10]: < 25% |
| COc1ccnc(C(=O)N[C@@H]2CC(C)(C)C[C@](C)(C(=O)N(C)CCc3ccccc3)C2)c1O [Compound 263] | – | – | – | – | – | – | – | – | – | – | – | – | – | USTIMA in vitro Growth Inhibition (Ustilago maydis (USTIMA)): − (key: +: at least 80% growth inhibition; −: less than 80% growth inhibition); PYRIOR in vitro Growth Inhibition ([1]; 25 ppm in growth medium): − (less than 80% growth inhibition); SEPTTR in vivo 1 Day Protectant (Septoria tritici—SEPTTR; [11]): − (<25% control of fungal infection); ERYSGT in vivo 1 Day Protectant (Erysiphe graminis—ERYSGT; [11]): − (<25% control of fungal infection); PUCCRT in vivo 1 Day Protectant [2, 11]: − (<25% control of fungal infection); RHIZSO in vitro Growth Inhibition [3]: − (key: +: at least 80% growth inhibition; −: less than 80% growth inhibition); LEPTNO in vivo 1 Day Protectant [4, 11]: + (25-74% control of fungal infection); PHYTIN in vitro Growth Inhibition ([5]; 25 ppm in growth medium): − (less than 80% growth inhibition); PHYTIN in vivo 1 Day Protectant ([6]; 100 ppm spray, 24 hour protectant, tomato, control of fungal infection vs untreated plants): − (<25% control of fungal infection); LEPTNO in vitro Growth Inhibition ([7]; 25 ppm in growth medium): − (less than 80% growth inhibition); SEPTTR in vitro Growth Inhibition ([8]; 25 ppm in growth medium): − (less than 80% growth inhibition) |
| COc1ccnc(C(=O)N[C@H]2CC(C)(C)[C@H](O)C(C)(C)C2)c1O [Compound 264, trans-4-HYDROXY-3,3,5,5-TETRAMETHYLPICOLINAMIDE] | < 80% | < 80% | – | – | < 80% | – | < 80% | < 25% | < 80% | < 80% | – | – | – | pest or weed control at 100 ppm (Septoria tritici—SEPTTR; [11]): 25 to 74%; pest or weed control at 100 ppm (Erysiphe graminis—ERYSGT; [11]): < 25%; pest or weed control at 100 ppm [2, 11]: 25 to 74%; pest or weed control at 100 ppm [4, 11]: < 25% |
| COc1ccnc(C(=O)Nc2ccc(Oc3cccc(C)c3)cc2)c1O [Compound 416] | < 80% | > 80% | < 25% | < 25% | < 80% | < 25% | < 80% | < 25% | < 80% | > 80% | – | – | – | pest or weed control at 100 ppm [2, 9]: 25 to 74% |
| CC(C)C(=O)O[C@H]1[C@H](C)OC(=O)[C@@H](NC(=O)c2nscc2O)COC(=O)[C@@H]1Cc1ccccc1 [Compound 550] | < 80% | > 80% | – | – | < 80% | – | > 80% | < 25% | – | – | 25 to 74% | > 80% | > 80% | pest or weed control at 100 ppm (Septoria tritici—SEPTTR; [10]): 25 to 74%; pest or weed control at 100 ppm [2, 10]: 25 to 74%; LEPTNO in vivo 1 Day Protectant [4, 10]: + + |
| COCCC(=O)Oc1cccnc1C(=O)N[C@H]1COC(=O)[C@H](Cc2ccccc2)[C@@H](OC(=O)C(C)C)[C@H](C)OC1=O [Compound 569] | < 80% | > 80% | – | – | < 80% | – | < 80% | 25 to 74% | – | – | < 25% | > 80% | > 80% | SEPTTR in vivo 1 Day Protectant (Septoria tritici—SEPTTR; [10]): + +; PUCCRT in vivo 1 Day Protectant [2, 10]: + +; LEPTNO in vivo 1 Day Protectant [4, 10]: + + |
| COc1ccnc(C(=O)NCC2COCCOCCOCCOCCO2)c1O (stereo not shown) [Compound 245] | < 80% | < 80% | – | – | < 80% | – | < 80% | < 25% | < 80% | < 80% | – | – | – | pest or weed control at 100 ppm (Septoria tritici—SEPTTR; [11]): 25 to 74%; pest or weed control at 100 ppm (Erysiphe graminis—ERYSGT; [11]): < 25%; pest or weed control at 100 ppm [2, 11]: < 25%; pest or weed control at 100 ppm [4, 11]: 25 to 74% |
| COc1ccccc1Oc1cccc(NC(=O)c2nccc(OC)c2O)c1 [Compound 430] | < 80% | < 80% | < 25% | < 25% | < 80% | < 25% | < 80% | 25 to 74% | < 80% | < 80% | – | – | – | pest or weed control at 100 ppm [2, 9]: < 25% |
| COc1ccnc(C(=O)Nc2ccc(C(=O)Nc3cccc(C(F)(F)F)c3)cc2)c1O [Compound 449] | < 80% | > 80% | 25 to 74% | < 25% | > 80% | 25 to 74% | < 80% | < 25% | < 80% | < 80% | – | – | – | pest or weed control at 100 ppm [2, 9]: < 25% |
